Results as given in patent publication US12589143B2, “Human anti-PD-L1 peptide vaccines and methods of their use” (priority 2019, dated 2026).
Where no end group is shown, it is not given here.

Tests used:
[1] = test system: MVF-PD-L1 peptide immunogen; assay: Immunogenicity in Balb/c mice, experiment 2 (CT26/HER-2): ELISA of sera vs each MVF-PD-L1 peptide immunogen; assay type: in vivo; settings: Balb/c mice
Experimental: Immunogenicity of MVF-PD-L1 B-cell epitopes. New Zealand White rabbits were immunized with 1 mg of each MVF-peptide immunogens dissolved in dd H2O emulsified (1:1) in Montanide ISA 720 vehicle (Seppic) with 333 μg of N-acetylglucosamine-3yl-acetyl-1-alanyl-d-isoglutamine (nor-MDP). Rabbits were boosted with the same doses at 3-week's intervals. Blood was collected via the central auricular artery in rabbits. Blood was collected weekly (1Y+3, 2Y+1, 2Y+2,2Y+3, 3Y+1, 3Y+2 and sera tested for antibody titers by ELISA using the immunogens MVF-PD-L1 peptides. Sera (terminal) from rabbit (3Y+3) immunized with MVF-PD-1 peptide immunogens were tested individually versus the immunogen by ELISA. 200 ng/well peptide were used in duplicates to coat the ELISA plates. Titers are defined as the highest dilution of sera with an absorbance value of 0.2 after subtracting the blank. […]
In order to verify the efficacy of the PD-L1 epitope vaccines in vivo in the CT26/HER-2 carcinoma cell line, Balb/c mice (10 mice/group) were immunized with 100 μg each of MVF-PD-L1 (36-53), MVF-PD-L1 (50-67), MVF-PD-L1 (95-112) and MVF-PD-L1 (130-147) emulsified with nor-MDP and Montanide 720 (1:1 ratio) SCHEME 2A (FIG. 15A). As detailed in SCHEME 2A-D (FIGS. 15A, 15B, 15C, and 15D), mice were immunized 3 times at 3 weeks intervals. […] All PD-L1 epitopes elicited high titers of PD-L1 anti-peptide antibodies by ELISA. […] We also investigated the combination of PD-1(92-110) with PD-L1-95.
For each peptide, vaccine antibodies were raised in New Zealand white rabbits, purchased from Charles River Laboratories (Wilmington, MA, USA). Rabbits were immunized with 1 mg of MVF chimeric peptide emulsified in Montanide ISA 720 (Seppic, Paris, France) and boosted 3 times at three week intervals. For mouse experiments, mice, 6-8 weeks old, were immunized with 0.1 mg of peptide emulsified in ISA720 (1:1 ratio). Mice were boosted with the respective doses at 3-week intervals. Blood was then collected and sera were tested for antibody titers. Sera were collected weekly and peptide vaccine antibodies were purified by affinity chromatography using a protein A/G column and the concentration was measured using Spectrophometer. All experiments were performed in accordance with the U.S. Public Health Service Policy on Humane Care and Use of Laboratory animals and approved by the Ohio State University Institutional Animals Care and Use Committee, detailed in the accepted protocol.
6-8 weeks old BALB/c mice (Charles River, Wilmington, MA) were used as standard animal models. Mouse CT26 colon carcinoma cell line was purchased from American Type Culture Collection Cells and were regularly cultured in RPMI1640 medium containing 10% FBS. CT26/HER2 cells were kindly provided by M. Penichet. Vaccines were dissolved in sterile water and emulsified in Montanide ISA 720 (1:1). Female Balb/c mice (Charles River Laboratories) at the age of 6-8 weeks were immunized three times at 3-week intervals with 100 μg of each peptide vaccine, and 2 weeks after the third immunization, the mice were challenged with CT26 and/or CT26/HER-2 tumor cells, which were implanted subcutaneously (s.c) on the right flank (1×10^5 per mouse). 200 μg of rat α-mouse PD-L1 mAb 10F.9G2 (Bio X Cell, West Lebanon, NH) were administered intraperitoneally (i.p.), twice weekly following tumor inoculation in the control group. Mice were monitored and scored for the formation of palpable tumors on a daily basis and sacrificed if tumors became necrotic or exceeded the predetermined size of 2,000 mm^3. Tumor volumes were measured in cubic millimeters with calipers and calculated with the following formula: A×B^2×0.5, where A is the largest diameter, and B is the widest point perpendicular to length. During immunization, blood was drawn weekly and used in ELISA to monitor antibody titers.

PD-1/PD-L1 interaction = target: T1, PD-1/PD-L1 interaction (Homo sapiens, UniProt Q9NZQ7); assay: PD-1/PD-L1 blockade bioassay (Promega); assay type: cell-based; settings: antibodies from immunized rabbits, compared to Nivolumab and Atezolizumab
T1 construct: host or cells: PD-L1 aAPC/CHO-K1 cells and PD-1 effector cells
T1 sequence (Q9NZQ7 19-290): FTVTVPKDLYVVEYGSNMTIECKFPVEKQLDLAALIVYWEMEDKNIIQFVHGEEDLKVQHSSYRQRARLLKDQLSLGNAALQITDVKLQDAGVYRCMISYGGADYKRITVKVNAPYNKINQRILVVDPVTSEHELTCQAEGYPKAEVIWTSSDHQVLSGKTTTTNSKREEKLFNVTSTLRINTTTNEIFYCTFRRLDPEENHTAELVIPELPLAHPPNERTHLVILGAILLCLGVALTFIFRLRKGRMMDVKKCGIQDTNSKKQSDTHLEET
Experimental: The assay was performed following the manufacturer's protocol for the PD-1/PD-L1 blockade bioassay (Promega).
The bioluminescent cell-based PD-1/PD-L1 blockade bioassays provide a good option for rapid screening of therapeutic antibodies or other compounds developed to interfere with PD-1-signaling interaction. PD1/PD-L1 blockade assay was used to test the functionality of 3 anti-PD-L1 antibodies. It was observed that purified polyclonal anti-PD-L1 antibody from the rabbits was able to block PD1/PD-L1 interaction similar to commercial anti-human PD-L1 antibody (FIG. 12). […] In FIG. 12, we show the capacity of each of the PD-L1 vaccines to block the PD-1:PD-L1 interaction as compared to Nivolumab and Atezolizumab. Remarkably only PD-L1 130-147 antibodies were effective
The assay was performed following the manufacturer's protocol for the PD-1/PD-L1 blockade bioassay (Promega). In brief, 4×10^5 aAPC/CHO-K1 or PD-L1 aAPC/CHO-K1 cells were seeded into 96-well plates in RPMI-1640 with 10% FBS. After overnight culturing, the medium was aspirated, and serially diluted purified PD-L1 or PD-1 antibodies, as well as Nivolumab and Atezolizumab antibodies (as reference antibodies) were added. Next, PD-1 effector cells were co-cultured and plate was kept for 5 h at 37° C. in a humidified 5% CO2 incubator. Following mixing with Bio-Glo Reagent, the luminescence was measured with a luminescence plate reader, SpectraMax M3 plate reader (Molecular Devices).

Row | Sequence | Immunogenicity (titers) 1′ Conc. 1: ([1]; bleed 1Y + 3) | Immunogenicity (titers) 1′ Conc. 1: ([1]; bleed 2Y + 1) | Immunogenicity (titers) 1′ Conc. 1: ([1]; bleed 2Y + 2) | Immunogenicity (titers) 1′ Conc. 1: ([1]; bleed 2Y + 3) | Immunogenicity (titers) 1′ Conc. 1: ([1]; bleed 3Y + 1) | Immunogenicity (titers) 1′ Conc. 1: ([1]; bleed 3Y + 2) | Immunogenicity (titers) 1′ Conc. 1: ([1]; bleed 3Y + 3) | blocking of PD-1/PD-L1 interaction (PD-1/PD-L1 interaction)
1 | KLLSLIKGVIVHRLEGVEGPSLFVHGEEDLKVQHSSYRQR (KLLSLIKGVIVHRLEGVEGPSLFVHGEEDLKVQHSSYRQR-NH2) [PD-L1(50)] | 6400 | 25600 | 128000 | 128000 | 128000 | 256000 | 256000 | unable to block PD-1 and PD-L1
2 | KLLSLIKGVIVHRLEGVEGPSLLIVYWEMEDKNIIQFVHG (KLLSLIKGVIVHRLEGVEGPSLLIVYWEMEDKNIIQFVHG-NH2) [PD-L1(36)] | 0 | 1600 | 4000 | 32000 | 16000 | 32000 | 16000 | –
